Consider four molecules from publication PMC3770298 (ACS medicinal chemistry letters, 2013).

Molecules are shown by their SMILES.

One assay deals with T1, RORγ (Mus musculus, UniProt P51450).
T1 sequence (P51450 1-516): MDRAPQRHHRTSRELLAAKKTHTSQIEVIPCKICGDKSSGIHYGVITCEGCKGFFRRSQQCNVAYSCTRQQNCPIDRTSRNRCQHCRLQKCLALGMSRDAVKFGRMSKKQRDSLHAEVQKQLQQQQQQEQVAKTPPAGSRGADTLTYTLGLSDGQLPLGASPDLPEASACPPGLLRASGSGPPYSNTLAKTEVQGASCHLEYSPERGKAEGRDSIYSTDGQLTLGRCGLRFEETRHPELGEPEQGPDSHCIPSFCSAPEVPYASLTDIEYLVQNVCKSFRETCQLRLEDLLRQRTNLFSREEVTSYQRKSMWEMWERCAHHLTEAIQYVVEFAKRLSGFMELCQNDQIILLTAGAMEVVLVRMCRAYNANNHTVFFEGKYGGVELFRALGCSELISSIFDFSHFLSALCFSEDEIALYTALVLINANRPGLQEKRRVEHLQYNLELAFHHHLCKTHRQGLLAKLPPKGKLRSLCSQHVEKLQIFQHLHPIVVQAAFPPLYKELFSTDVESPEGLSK
Nature of the assay: cell-based RORγ gene reporter assay. The conditions noted are these: for IC50 (μM) (RORγ): Table 1, region A, mean of four replicates from two independent experiments.

For assay [1], the system named is mouse TH17 cell differentiation. Nature of the assay: mouse TH17 cell differentiation. Format: cell-based. The conditions noted are these: read-out: inhibition of mouse TH17 cell differentiation.
In a further assay the test system is Th1 cell differentiation. Put plainly: Th1 cell differentiation. Format: cell-based, mouse. The following applies: 20 μM; data not shown.
The next assay addresses T2, DHR3 (Drosophila melanogaster, UniProt P31396).
T2 sequence (P31396 1-487): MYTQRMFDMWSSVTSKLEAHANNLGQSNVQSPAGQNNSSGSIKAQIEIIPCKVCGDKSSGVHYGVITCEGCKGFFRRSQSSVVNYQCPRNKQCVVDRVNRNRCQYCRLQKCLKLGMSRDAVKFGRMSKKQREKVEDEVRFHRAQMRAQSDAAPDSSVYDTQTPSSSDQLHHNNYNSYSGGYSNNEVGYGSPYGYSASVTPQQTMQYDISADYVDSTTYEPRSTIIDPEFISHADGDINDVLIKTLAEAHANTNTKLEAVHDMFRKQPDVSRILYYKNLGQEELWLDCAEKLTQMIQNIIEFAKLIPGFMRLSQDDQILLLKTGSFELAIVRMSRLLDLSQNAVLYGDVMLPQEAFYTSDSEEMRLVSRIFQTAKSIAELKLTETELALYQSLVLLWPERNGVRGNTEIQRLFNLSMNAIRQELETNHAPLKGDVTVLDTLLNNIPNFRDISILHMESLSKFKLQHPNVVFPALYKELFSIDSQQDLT
Put plainly: DHR3 gene reporter assay. The conditions noted are these: up to 96 μM. Format: cell-based. For orientation: A reporter such as luciferase makes a cellular process visible.

For a further assay, the system named is VP16. The format is cell-based. The following applies: up to 96 μM.
The target of the next assay is T3, RORα (Mus musculus, UniProt P51448).
T3 sequence (P51448 1-523): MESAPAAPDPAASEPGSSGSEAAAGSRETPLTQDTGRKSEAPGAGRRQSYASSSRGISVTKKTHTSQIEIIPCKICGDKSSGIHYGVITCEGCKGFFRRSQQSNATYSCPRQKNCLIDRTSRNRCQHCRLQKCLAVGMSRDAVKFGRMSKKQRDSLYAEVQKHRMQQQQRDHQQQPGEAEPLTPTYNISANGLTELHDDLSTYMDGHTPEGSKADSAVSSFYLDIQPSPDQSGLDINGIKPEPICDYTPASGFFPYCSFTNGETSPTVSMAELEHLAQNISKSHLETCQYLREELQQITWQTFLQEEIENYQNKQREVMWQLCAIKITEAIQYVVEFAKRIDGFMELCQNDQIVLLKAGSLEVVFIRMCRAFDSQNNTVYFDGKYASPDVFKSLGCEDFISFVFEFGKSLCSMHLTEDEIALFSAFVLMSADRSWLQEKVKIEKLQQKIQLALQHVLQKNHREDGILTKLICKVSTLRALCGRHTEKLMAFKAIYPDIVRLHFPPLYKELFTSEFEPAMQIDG
Put plainly: RORα gene reporter assay. The format is cell-based. The conditions noted are these: up to 96 μM.

Assay [2] deals with T4, RORγ ligand binding domain (LBD) (Homo sapiens, UniProt P51449).
T4 sequence (P51449 269-508 limits assumed): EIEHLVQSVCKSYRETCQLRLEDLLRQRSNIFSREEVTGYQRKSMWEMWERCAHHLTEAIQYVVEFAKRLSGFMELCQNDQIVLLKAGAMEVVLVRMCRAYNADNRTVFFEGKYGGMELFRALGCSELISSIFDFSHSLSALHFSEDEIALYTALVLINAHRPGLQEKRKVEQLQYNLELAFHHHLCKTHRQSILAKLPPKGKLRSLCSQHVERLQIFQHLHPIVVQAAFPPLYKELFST
Put plainly: fluoroprobe. The following applies: competition assay.

Take `COc1cc(O)c(C(CC(=O)N2C[C@@H](C)N[C@@H](C)C2)c2ccc3c(c2)OCO3)c(OC)c1` (stereo partly drawn) [Compound 4m]: the “IC50 (μM) (RORγ)” value against RORγ is “inactive”.
Take `C[C@H]1O[C@@H](O[C@H]2[C@@H](O)C[C@H](O[C@H]3[C@@H](O)C[C@H](O[C@H]4CC[C@@]5(C)[C@H](CC[C@@H]6[C@@H]5C[C@@H](O)[C@]5(C)[C@@H](C7=CC(=O)OC7)CC[C@]65O)C4)O[C@@H]3C)O[C@@H]2C)C[C@H](O)[C@@H]1O` [Digoxin, reference compound]: the “result in qHTS for RORγ antagonists” value at RORγ (qHTS of 310,000 compounds with VP16 counterscreen) is “selective antagonists”.
Consider `COc1cc(O)c(C(CC(=O)N2CCCC(C)C2)c2ccc3c(c2)OCO3)c(OC)c1` (stereo not drawn) [Compound 4a], for which, in assay [1], the inhibition at 20 µM came to 84%. For the same molecule, the “effect on Th1 cell differentiation” value with Th1 cell differentiation is “no effect”. Also, on DHR3, the “activity in the DHR3 assay” value is given as “no activity”. For the same molecule, the “activity in the VP16 assay” value with VP16 is “no activity”. For the same molecule, at RORα, the “activity in the RORα assay” value is recorded as “no activity”.
For `COc1cc(O)c(C(CC(=O)N2CCOCC2)c2ccc3c(c2)OCO3)c(OC)c1` (stereo not drawn) [Compound 4k], the “displacement of hydroxycholesterol from RORγ LBD” value in assay [2] is on record as “failed to displace”. For the same molecule, at RORγ, the “IC50 (μM) (RORγ)” value was “inactive”.

Broadly, the inhibition is the percentage by which the read-out fell short of the control.
